The results in this text go back to article PMC10107299, “Neutralizing the Impact of the Virulence Factor LecA from Pseudomonas aeruginosa on Human Cells with New Glycomimetic Inhibitors” (Angewandte Chemie (International Ed. in English), 2023).

pIC50: −log10 of the molar value. Read-outs that look alike come from different tables or passages of the source.

The target in data set [1] is T1, LecA (Pseudomonas aeruginosa, UniProt Q05097).
T1 construct: made in house
Kind of data set: Inhibition of LecA-AF488 binding to H1299 cells, flow cytometry. Format: cell-based. As to conditions: for pIC50: IC50 for inhibition of LecA binding to H1299 cells, N=3; for pIC50 / Decrease of LecA binding to H1299 cells: 0.16 μM LecA-AF488, flow cytometry; for Inhibition of lectin binding to the cells: 7.5 μM and above, flow cytometry. The protocol: Next, we investigated the two most promising compounds H2 and L2 for their efficacy to inhibit LecA binding to H1299 human lung epithelial cells using flow cytometry and confocal microscopy. To this end, LecA was fluorescently labelled with Alexa Fluor 488 NHS ester (LecA‐AF488), incubated with varying concentrations of the inhibitors (100 nM to 10 μM) and subsequently added to the cells.
For flow cytometry analysis, inhibitors were preincubated with 0.16 μM LecA prior addition to the H1299 cells. After incubation for 30 min, fluorescence intensity was recorded at the flow cytometer. […] In contrast, 10 μM of the corresponding monovalent ligands G2 and K2 were required for 50 % inhibition (Figure S10).
H1299 cells were detached with 2 mL of 1.5 mM EDTA in PBS, 1.2 × 10^5 cells were counted and transferred to a U-bottom 96 well plate (Sarstedt AG & Co. KG, Numbrecht, Germany).
For flow cytometry assay, the optimal LecA concentration was established following a lectin titration (0.04–0.5 µM LecA-AF488) with H1299 cells. The histogram of fluorescence intensity […]
µM LecA-AF488 was used in flow cytometry experiments. LecA-AF488 was preincubated with PNPG, G2, K2, H2 or L2 in RPMI medium, for 20 min at room temperature and protected from light. The ligand-LecA solution was then added to the cells and further incubated for 30 min at 4 °C. H1299 cells were resuspended with medium in absence of lectin or inhibitor represented the negative assay control, while cells incubated only with LecA-AF488 (no inhibitor) served as the positive control. Subsequently, cells were centrifuged at 1600 × g for 3 min at 4 °C to remove unbound lectin. The samples were then washed twice with ice-cold FACS buffer (PBS (-/-) supplemented with 3% FCS (v/v)). After the last washing step, the cells were re-suspended in FACS buffer and transferred to FACS tubes (Kisker Biotech GmbH Co. KG, Steinfurt, Germany) on ice and in absence of light. The fluorescence intensity of treated cells was measured with FACS Gallios from Beckman Coulter. […]

Data set [2] is described as follows: in vitro. Format: in vitro ADME. Conditions: pH 7.4, 37 °C. The protocol: Then, we analyzed the stability of the compounds in plasma. […] The observed increase in plasma stability of the tested amide derivatives compared to bisacylhydrazone 14 supports our design hypothesis for the isosteric replacement of the bisacylhydrazone linking motif. […]
Each compound dissolved in DMSO was added to mouse plasma (pH 7.4, 37 °C) or to human plasma (pH 7.4, 37 °C) to yield a final concentration of 1 µM. In addition, procaine and procainamide (dissolved in DMSO) were added to mouse plasma or to human plasma (pH 7.4, 37 °C) to yield a final concentration of 1 µM. Procaine served as positive control as it is unstable in mouse plasma. Procainamide served as negative control as it is stable in mouse plasma. The samples were incubated for 0 min, 15 min, 30 min, 60 min, 90 min, 120 min and 240 min at 37 °C. At each time point, 10 µl of the respective sample was extracted with 90 µL acetonitrile containing 12.5 ng/mL caffeine as internal standard for 5 min at 2000 rpm on a MixMate vortex […]
(§1) mixer (Eppendorf). Acetonitrile and caffeine were dispensed using a Mantis Formulatrix. Then samples were centrifuged for 20 min at 2.270 x g at 4 °C and the supernatants were transferred to 96-well Greiner V-bottom plates. Peak areas of each compound and of the internal standard were analyzed using the MultiQuant 3.0 software (AB Sciex). Peak areas of the respective compound were normalized to the internal standard peak area and to the respective peak areas at time point 0 min: (C/D)/(A/B) with A: peak area of the compound at time point 0 min, B: peak area of the internal standard at time point 0 min, C: peak area of the compound at the respective time point, D: peak area of the internal standard at the respective time point. […]
(§2) 2 hours at 800 rpm on an Eppendorf MixMate vortex-mixer. Then samples were withdrawn from the respective chambers. To 25 µL of each dialysis sample, 25 µL of plasma and to 25 µL of plasma sample, 25 µL of dialysis buffer was added. Then 150 µL ice-cold extraction solvent (ACN/H2O (90:10) containing 12.5 ng/mL caffeine as internal standard) was added. Samples were incubated for 30 min on ice. Then samples were centrifuged at 4 °C at 2270 x g for 10 min.

Data set [3] is described as follows: Plasma protein binding (rapid equilibrium device), human plasma. The data set is classed as in vitro ADME. Conditions: both sexes, human, plasma, read-out: PPB Human (converted). The protocol:
as §1
Assessment of plasma protein binding
Plasma protein binding was assessed using the rapid equilibrium device (RED) system from ThermoFisher. Compounds were dissolved in DMSO. […]
as §2, with “high plasma protein binding. Compounds were diluted in murine plasma (from CD-1 mice, pooled) or in human plasma (human donors, both genders, pooled) to a final concentration of 1 µM. Dialysis buffer and plasma samples were added to the respective chambers according the manufacturer’s protocol. The RED plate was sealed with a tape and incubated at 37 °C for 2 hours” for “2 hours”
Supernatants were transferred to Greiner V-bottom 96-well plates and sealed with a tape. The […]
percentage of bound compound was calculated as follows:
(1) % free = (concentration buffer chamber / concentration plasma chamber) *100 […]
Samples were analyzed using an Agilent 1290 Infinity II HPLC system coupled to an AB Sciex QTrap 6500plus mass spectrometer. LC conditions were as follows: column: Agilent […]
Zorbax Eclipse Plus C18, 50x2.1 mm, 1.8 µm; temperature: 30 °C; injection volume: 5 µL per […]
sample; flow rate: 700 µL/min. Samples were run under acidic and buffered conditions.
Solvents for acidic conditions: A1: water + 0.1% formic acid; solvent B1: 95% acetonitrile/5% […]
H2O + 0.1% formic acid; solvents for buffered conditions: A2: 95% water + 5% acetonitrile + […]
5 mM ammonium acetate + 40 µL/L acetic acid; B2: 95% acetonitrile + 5% water + 5 mM […]
ammonium acetate + 40 µL/L acetic acid. The same gradient was applied for acidic and […]
buffered conditions: 99% A at 0 min, 99% A until 1 min, 99% - 0% A from 1 min to 4.0 min, […]
0% A until 5.0 min. Mass transitions for controls and compounds are depicted in the following […]

The mark [4] stands for this setting: human plasma, read-out: Plasma stability t1/2 Human.
[5] abbreviates: mouse plasma, read-out: Plasma stability t1/2 Mouse.

T1 sequence (Q05097 whole entry): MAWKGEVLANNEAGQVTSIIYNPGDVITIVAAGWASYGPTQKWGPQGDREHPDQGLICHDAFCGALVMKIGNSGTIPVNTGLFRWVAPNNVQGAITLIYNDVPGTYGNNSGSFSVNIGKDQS

In data set [1], `COc1ccc(NC(=O)CCc2ccc(O[C@@H]3O[C@H](CO)[C@H](O)[C@H](O)[C@H]3O)cc2)cn1` [Compound G2] showed a pIC50 of 5.55.
On to `O=C(/C=C/c1ccc(O[C@@H]2O[C@H](CO)[C@H](O)[C@H](O)[C@H]2O)cc1)Nc1ccc(OCCOc2ccc(NC(=O)/C=C/c3ccc(O[C@@H]4O[C@H](CO)[C@H](O)[C@H](O)[C@H]4O)cc3)cn2)nc1` [Compound H1], for which the half-life at 1 µM is more than 4 h in data set [2] (setting [4]) and more than 3 h in data set [2] (setting [5]).
Consider `O=C(CCc1ccc(O[C@@H]2O[C@H](CO)[C@H](O)[C@H](O)[C@H]2O)cc1)Nc1ccc(OCCOc2ccc(NC(=O)CCc3ccc(O[C@@H]4O[C@H](CO)[C@H](O)[C@H](O)[C@H]4O)cc3)cc2)cc1` [Compound D2], for which, in data set [3], the fraction unbound at 2 h, 1 µM is 0.005. For the same molecule, the half-life at 1 µM in data set [2] (setting [4]) is 2.21 h; in data set [2] (setting [5]) it was 3.04 h.
As for `O=C(CCc1ccc(O[C@@H]2O[C@H](CO)[C@H](O)[C@H](O)[C@H]2O)cc1)Nc1ccc(OCCOc2ccc(NC(=O)CCc3ccc(O[C@@H]4O[C@H](CO)[C@H](O)[C@H](O)[C@H]4O)cc3)cn2)nc1` [Compound H2], in data set [3], the fraction unbound at 2 h, 1 µM was 0.005. Further, the half-life at 1 µM in data set [2] (setting [4]) amounted to 3.58 h; in data set [2] (setting [5]), 1.35 h. The “Decrease of LecA binding to H1299 cells” value in data set [1] (250 nM inhibitor) worked out at 16%; in data set [1] (1 μM inhibitor), 50%. For the same molecule, in data set [1], the “Inhibition of lectin binding to the cells” value is “complete inhibition”. Besides, the pIC50 in data set [1] was 6.27.
With `O=C(CCc1ccc(O[C@@H]2O[C@H](CO)[C@H](O)[C@H](O)[C@H]2O)cc1)Nc1ccc(CCc2ccc(NC(=O)CCc3ccc(O[C@@H]4O[C@H](CO)[C@H](O)[C@H](O)[C@H]4O)cc3)cc2S(=O)(=O)O)c(S(=O)(=O)O)c1` [Compound L2], the fraction unbound at 2 h, 1 µM in data set [3] was 0.62. Moreover, the half-life at 1 µM in data set [2] (setting [4]) and in data set [2] (setting [5]) was more than 4 h in each case. Also, the entries for the “Decrease of LecA binding to H1299 cells” value in data set [1] (250 nM inhibitor) and in data set [1] (1 μM inhibitor) were “more than 30%” and 50%, respectively. The “Inhibition of lectin binding to the cells” value in data set [1] is “complete inhibition”. The molecule further showed a pIC50 in data set [1] of 6.25.
Regarding `O=C(/C=C/c1ccc(O[C@@H]2O[C@H](CO)[C@H](O)[C@H](O)[C@H]2O)cc1)Nc1ccc(OCCOc2ccc(NC(=O)/C=C/c3ccc(O[C@@H]4O[C@H](CO)[C@H](O)[C@H](O)[C@H]4O)cc3)cc2)cc1` [Compound D1], the fraction unbound at 2 h, 1 µM in data set [3] was 0.004. In addition, the figures for the half-life at 1 µM in data set [2] (setting [4]) and in data set [2] (setting [5]) were 3.73 h and 3 h, respectively.
Consider `Cc1ccc(NC(=O)CCc2ccc(O[C@@H]3O[C@H](CO)[C@H](O)[C@H](O)[C@H]3O)cc2)cc1S(=O)(=O)O` [Compound K2], for which, in data set [1], the pIC50 is 5.72.
